Results taken from paper PMC6742966, “The Synergism of the Small Molecule ENOblock and Fluconazole Against Fluconazole-Resistant Candida albicans” (Frontiers in Microbiology, 2019).

Biological target: T1, C. albicans enolase 1 (rCaEno1) (Candida albicans, UniProt P30575)
T1 construct: gene ENO1; full-length, C-terminal His6 tag
Assay: SPR (Biacore T200, immobilized rCaEno1, steady-state affinity); also inhibits transglutaminase activity of purified rCaEno1, IC50 about […], with no significant effect on enolase activity
Type: binding

T1 sequence (P30575 whole entry): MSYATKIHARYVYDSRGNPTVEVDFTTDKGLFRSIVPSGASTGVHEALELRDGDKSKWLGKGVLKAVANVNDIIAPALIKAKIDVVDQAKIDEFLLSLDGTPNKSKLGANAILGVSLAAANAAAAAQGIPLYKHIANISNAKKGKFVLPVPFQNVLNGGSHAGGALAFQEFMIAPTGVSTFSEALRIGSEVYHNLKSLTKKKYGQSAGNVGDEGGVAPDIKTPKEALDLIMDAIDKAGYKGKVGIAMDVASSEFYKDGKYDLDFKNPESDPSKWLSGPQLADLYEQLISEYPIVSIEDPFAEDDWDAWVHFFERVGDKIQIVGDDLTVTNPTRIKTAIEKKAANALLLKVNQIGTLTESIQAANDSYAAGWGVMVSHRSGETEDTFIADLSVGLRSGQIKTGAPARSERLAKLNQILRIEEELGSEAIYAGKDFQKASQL

With `NCCOCCOCCNC(=O)Cc1ccc(Nc2nc(NCc3ccc(F)cc3)nc(NCC3CCCCC3)n2)cc1` [ENOblock] the Kd was roughly 300 nM.
